What all share (test): biochemical
What all share (parameters): KINOMEscan active site-directed competition binding assay (DiscoveRx), 456 kinases, per cent of control at 300 nM
Conditions in all cases: read-out: Percent of Control (%)

Experiment [1] has as its target PIK3CA (Homo sapiens, UniProt P42336). The method, boiled down: (§1)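 Each compound is tested at 300 nmol/L against a panel of 456 kinases. Interaction is quantified by competition for the kinase active site.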
Experiment [2] addresses IRAK3 (Homo sapiens, UniProt Q9Y616). In short, it runs like this: as §1
Experiment [3] addresses EGFR(S752-I759del) (Homo sapiens, UniProt P00533, DEL752-759). In short, it runs like this:
as §1

Experiment [4] has as its target T1, BIKE (Homo sapiens, UniProt Q9NSY1).
T1 construct: gene BMP2K
The method, boiled down:
as §1

The target of experiment [5] is T2, PCTK1 (Homo sapiens, UniProt Q00536).
T2 construct: gene CDK16
In short, it runs like this:
as §1

Experiment [6] deals with T3, SNARK (Homo sapiens, UniProt Q9H093).
T3 construct: gene NUAK2
The method, boiled down: as §1

The target of experiment [7] is T4, RSK2(Kin.Dom.2-C-terminal) (Homo sapiens, UniProt P51812).
T4 construct: gene RPS6KA3; Kin.Dom.2-C-terminal
In short, it runs like this: as §1

The target in experiment [8] is RET(M918T) (Homo sapiens, UniProt P07949, M918T). The method, boiled down: as §1
Sequence of RET(M918T) (P07949 whole entry M918T): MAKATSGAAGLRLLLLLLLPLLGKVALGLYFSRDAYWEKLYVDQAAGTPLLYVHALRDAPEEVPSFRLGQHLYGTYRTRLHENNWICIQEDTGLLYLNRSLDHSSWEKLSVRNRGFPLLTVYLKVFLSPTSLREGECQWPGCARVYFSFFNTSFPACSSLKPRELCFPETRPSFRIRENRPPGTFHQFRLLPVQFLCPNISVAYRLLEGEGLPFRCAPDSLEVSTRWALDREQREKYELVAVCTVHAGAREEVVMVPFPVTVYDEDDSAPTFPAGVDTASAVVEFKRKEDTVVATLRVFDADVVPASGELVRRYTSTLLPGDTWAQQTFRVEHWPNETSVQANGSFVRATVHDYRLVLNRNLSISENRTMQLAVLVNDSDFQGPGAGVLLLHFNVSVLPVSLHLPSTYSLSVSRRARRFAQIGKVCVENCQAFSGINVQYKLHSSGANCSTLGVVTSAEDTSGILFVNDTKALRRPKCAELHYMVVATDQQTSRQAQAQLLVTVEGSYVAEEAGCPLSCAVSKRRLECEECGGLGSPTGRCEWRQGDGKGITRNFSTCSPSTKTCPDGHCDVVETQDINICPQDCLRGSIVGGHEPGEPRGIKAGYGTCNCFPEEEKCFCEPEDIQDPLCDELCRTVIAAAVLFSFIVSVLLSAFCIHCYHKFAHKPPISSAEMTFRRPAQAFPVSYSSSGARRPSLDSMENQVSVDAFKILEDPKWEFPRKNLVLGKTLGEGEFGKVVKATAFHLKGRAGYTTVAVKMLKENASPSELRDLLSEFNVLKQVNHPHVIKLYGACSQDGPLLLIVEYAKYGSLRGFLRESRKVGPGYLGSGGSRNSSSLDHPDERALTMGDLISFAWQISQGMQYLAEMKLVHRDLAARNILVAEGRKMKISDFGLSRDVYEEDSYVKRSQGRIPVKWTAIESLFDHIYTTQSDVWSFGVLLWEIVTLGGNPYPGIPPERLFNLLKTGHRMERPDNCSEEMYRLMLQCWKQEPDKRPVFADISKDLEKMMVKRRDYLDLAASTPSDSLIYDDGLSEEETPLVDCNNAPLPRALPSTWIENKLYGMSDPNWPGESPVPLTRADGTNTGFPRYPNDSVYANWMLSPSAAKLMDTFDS
For experiment [9], the target named is NEK1 (Homo sapiens, UniProt Q96PY6). The method, boiled down:
as §1

The target of experiment [10] is BUB1 (Homo sapiens, UniProt O43683). In short, it runs like this: as §1
The target in experiment [11] is T5, JAK2(JH1domain-catalytic) (Homo sapiens, UniProt O60674).
T5 construct: JH1domain-catalytic
In short, it runs like this:
as §1

In experiment [12] the target is MARK3 (Homo sapiens, UniProt P27448). The method, boiled down: as §1
Experiment [13] deals with CLK3 (Homo sapiens, UniProt P49761). The method, boiled down: as §1
Experiment [14] concerns the target PIK3CD (Homo sapiens, UniProt O00329). In short, it runs like this:
as §1

For experiment [15], the target named is FLT1 (Homo sapiens, UniProt P17948). The method, boiled down: as §1
Experiment [16] deals with DMPK (Homo sapiens, UniProt Q09013). The method, boiled down: as §1
Experiment [17] concerns the target T6, LOK (Homo sapiens, UniProt O94804).
T6 construct: gene STK10
The method, boiled down: as §1

The target of experiment [18] is GSK3B (Homo sapiens, UniProt P49841). The method, boiled down:
as §1

The target in experiment [19] is ITK (Homo sapiens, UniProt Q08881). The method, boiled down: as §1
Experiment [20] concerns the target T7, RSK3(Kin.Dom.1-N-terminal) (Homo sapiens, UniProt Q15349).
T7 construct: gene RPS6KA2; Kin.Dom.1-N-terminal
In short, it runs like this:
as §1

Experiment [21] deals with TAOK1 (Homo sapiens, UniProt Q7L7X3). In short, it runs like this: as §1

Consider two compounds from publication PMC5862592, “CDK8/19 inhibition induces premature G1/S transition and ATR-dependent cell death in prostate cancer cells” (Oncotarget, 2018).

The structures appear in SMILES notation. Like-named read-outs stand apart in the source and are kept apart here.

Sequence of PIK3CD (O00329 whole entry): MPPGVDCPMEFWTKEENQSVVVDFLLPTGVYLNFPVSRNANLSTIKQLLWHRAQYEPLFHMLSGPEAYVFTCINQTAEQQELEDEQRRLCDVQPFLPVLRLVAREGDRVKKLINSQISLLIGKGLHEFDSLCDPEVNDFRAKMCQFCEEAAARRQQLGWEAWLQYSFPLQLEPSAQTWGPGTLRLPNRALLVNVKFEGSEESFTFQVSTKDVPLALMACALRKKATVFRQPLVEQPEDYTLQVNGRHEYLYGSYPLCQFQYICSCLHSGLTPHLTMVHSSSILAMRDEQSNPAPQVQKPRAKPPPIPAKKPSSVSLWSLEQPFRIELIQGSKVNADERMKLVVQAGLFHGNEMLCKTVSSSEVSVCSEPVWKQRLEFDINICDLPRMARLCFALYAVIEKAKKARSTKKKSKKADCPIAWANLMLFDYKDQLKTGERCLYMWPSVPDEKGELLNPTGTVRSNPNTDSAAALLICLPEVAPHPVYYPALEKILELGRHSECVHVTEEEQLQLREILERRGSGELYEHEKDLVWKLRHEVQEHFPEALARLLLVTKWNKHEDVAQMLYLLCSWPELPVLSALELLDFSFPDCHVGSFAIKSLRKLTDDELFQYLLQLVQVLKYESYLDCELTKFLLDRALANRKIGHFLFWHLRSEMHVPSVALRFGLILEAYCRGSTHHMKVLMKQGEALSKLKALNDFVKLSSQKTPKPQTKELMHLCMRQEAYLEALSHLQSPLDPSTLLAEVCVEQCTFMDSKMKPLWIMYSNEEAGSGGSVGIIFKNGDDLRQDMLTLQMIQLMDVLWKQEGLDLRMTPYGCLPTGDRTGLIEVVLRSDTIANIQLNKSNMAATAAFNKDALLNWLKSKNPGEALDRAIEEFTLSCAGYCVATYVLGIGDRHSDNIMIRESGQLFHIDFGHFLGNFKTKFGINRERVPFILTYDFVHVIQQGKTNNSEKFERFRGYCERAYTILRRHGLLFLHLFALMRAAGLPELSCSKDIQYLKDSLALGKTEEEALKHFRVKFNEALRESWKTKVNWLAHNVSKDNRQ
T6 sequence (O94804 whole entry): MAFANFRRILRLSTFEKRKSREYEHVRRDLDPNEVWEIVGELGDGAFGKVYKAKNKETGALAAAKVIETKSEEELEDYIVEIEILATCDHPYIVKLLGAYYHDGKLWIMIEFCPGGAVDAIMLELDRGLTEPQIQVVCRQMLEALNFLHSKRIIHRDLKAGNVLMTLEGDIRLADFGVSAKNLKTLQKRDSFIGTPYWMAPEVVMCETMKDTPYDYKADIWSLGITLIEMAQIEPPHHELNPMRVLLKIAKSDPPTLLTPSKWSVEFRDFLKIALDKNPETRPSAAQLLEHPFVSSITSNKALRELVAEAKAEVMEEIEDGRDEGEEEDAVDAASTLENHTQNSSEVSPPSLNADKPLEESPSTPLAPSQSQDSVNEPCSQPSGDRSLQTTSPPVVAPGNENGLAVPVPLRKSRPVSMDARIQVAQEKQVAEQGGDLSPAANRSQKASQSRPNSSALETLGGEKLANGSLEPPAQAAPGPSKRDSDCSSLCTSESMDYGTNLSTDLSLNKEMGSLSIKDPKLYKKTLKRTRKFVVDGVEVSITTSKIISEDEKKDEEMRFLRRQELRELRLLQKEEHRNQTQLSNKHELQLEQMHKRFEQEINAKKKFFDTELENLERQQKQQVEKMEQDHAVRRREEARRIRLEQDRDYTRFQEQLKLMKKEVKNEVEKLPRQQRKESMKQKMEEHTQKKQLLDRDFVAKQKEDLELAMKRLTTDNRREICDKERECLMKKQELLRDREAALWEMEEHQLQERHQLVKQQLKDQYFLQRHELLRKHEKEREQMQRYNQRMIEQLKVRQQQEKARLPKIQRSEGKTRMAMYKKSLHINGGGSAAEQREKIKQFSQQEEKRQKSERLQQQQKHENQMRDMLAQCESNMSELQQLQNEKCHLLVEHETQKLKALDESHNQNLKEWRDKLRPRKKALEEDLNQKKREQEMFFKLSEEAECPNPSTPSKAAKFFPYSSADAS
T1 sequence (Q9NSY1 whole entry): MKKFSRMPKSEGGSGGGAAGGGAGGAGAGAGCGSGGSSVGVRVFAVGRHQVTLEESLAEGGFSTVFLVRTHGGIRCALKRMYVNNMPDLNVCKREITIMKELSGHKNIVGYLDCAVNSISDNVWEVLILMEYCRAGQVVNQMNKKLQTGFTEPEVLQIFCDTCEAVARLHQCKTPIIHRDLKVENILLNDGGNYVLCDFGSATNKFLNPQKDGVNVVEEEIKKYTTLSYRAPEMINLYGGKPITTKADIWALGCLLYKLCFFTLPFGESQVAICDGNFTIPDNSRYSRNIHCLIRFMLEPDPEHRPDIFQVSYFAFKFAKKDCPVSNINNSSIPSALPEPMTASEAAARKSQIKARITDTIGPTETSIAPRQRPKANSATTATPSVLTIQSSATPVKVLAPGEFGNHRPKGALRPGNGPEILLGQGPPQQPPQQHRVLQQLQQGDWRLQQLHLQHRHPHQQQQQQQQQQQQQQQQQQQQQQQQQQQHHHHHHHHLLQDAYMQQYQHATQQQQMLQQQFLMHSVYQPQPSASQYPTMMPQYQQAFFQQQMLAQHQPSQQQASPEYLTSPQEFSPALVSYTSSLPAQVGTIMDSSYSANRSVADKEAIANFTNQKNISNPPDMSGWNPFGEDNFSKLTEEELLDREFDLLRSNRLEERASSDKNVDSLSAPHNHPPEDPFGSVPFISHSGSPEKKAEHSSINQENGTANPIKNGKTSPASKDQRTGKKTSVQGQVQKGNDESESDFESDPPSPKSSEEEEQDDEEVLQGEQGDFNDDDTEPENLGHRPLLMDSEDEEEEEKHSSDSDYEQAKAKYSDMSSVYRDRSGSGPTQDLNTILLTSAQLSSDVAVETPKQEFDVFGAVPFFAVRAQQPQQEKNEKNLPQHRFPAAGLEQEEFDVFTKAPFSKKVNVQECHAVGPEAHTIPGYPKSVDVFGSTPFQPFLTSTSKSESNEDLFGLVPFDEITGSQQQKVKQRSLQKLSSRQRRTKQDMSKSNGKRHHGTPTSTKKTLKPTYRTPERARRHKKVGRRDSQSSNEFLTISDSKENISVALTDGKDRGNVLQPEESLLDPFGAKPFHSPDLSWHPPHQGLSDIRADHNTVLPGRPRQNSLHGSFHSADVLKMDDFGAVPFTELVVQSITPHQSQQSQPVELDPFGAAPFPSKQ
T7 sequence (Q15349 whole entry): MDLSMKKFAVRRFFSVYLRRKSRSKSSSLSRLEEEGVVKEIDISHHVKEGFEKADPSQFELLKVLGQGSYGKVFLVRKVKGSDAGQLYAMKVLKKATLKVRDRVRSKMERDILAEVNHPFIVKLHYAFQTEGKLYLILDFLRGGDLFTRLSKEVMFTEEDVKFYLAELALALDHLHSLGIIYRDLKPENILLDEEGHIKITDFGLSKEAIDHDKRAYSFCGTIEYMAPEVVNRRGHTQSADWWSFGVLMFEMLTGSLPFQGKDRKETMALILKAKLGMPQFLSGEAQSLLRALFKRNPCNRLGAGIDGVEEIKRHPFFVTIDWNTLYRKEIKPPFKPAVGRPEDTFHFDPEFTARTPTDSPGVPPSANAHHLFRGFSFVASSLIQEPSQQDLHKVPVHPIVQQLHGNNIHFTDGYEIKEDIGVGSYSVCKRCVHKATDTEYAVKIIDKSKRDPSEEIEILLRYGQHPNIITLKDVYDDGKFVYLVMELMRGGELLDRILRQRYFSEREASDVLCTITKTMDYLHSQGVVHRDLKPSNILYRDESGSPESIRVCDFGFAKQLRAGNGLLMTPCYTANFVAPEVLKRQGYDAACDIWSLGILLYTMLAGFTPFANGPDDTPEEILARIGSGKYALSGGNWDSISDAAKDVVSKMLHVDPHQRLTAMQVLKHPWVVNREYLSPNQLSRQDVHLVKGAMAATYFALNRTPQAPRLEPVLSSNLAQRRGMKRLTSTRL

As to `Cc1ncccc1Oc1sc(C(N)=O)c2c1-c1c(cnn1C)CC2` [T-474, 1-methyl-8-((2-methylpyridin-3-yl)oxy)-4,5-dihydro-1H-thieno[3,4-g]indazole-6-carboxamide], the remaining binding at 0.3 µM in experiment [1] came out at 92%; in [2] it was 96%; in [3], 100%; in experiment [4], 100%; in experiment [5] it was 100%; in [6], 74%. The remaining binding at 0.3 µM in [7] worked out at 100%; in experiment [8] it was 100%; in experiment [9] it was 95%; in experiment [10] it was 100%; in experiment [11], 100%; in experiment [12] it was 88%. Further, the remaining binding at 0.3 µM in [13] worked out at 100%; in [14] it was 88%; in [15] it was 100%; in experiment [16] it was 98%; in experiment [17], 100%; in experiment [18], 94%. For the same compound, the remaining binding at 0.3 µM is 100% in [19], 100% in experiment [20] and 95% in experiment [21].
As to `O=C(/C=C/c1cnccc1-c1ccc(F)cc1)Nc1ccc(CCc2nnco2)cc1` [T-418, (2E)-3-(4-(4-fluorophenyl)pyridin-3-yl)-N-(4-(2-(1,3,4-oxadiazol-2-yl)ethyl)phenyl)acrylamide], the remaining binding at 0.3 µM in experiment [1] (sheet T-418) amounted to 84%; in [2] (sheet T-418) it was 100%; in experiment [3] (sheet T-418), 98%; in experiment [4] (sheet T-418) it was 97%; in experiment [5] (sheet T-418), 98%; in experiment [6] (sheet T-418), 60%. The remaining binding at 0.3 µM in experiment [7] (sheet T-418) was found to be 100%; in [8] (sheet T-418) it was 98%; in [9] (sheet T-418), 90%; in [10] (sheet T-418) it was 100%; in experiment [11] (sheet T-418), 100%; in experiment [12] (sheet T-418), 80%. For the same compound, the remaining binding at 0.3 µM in [13] (sheet T-418) came out at 92%; in [14] (sheet T-418), 99%; in [15] (sheet T-418) it was 100%; in [16] (sheet T-418), 91%; in experiment [17] (sheet T-418) it was 93%; in experiment [18] (sheet T-418), 98%. The remaining binding at 0.3 µM was 100% in [19] (sheet T-418), 79% in experiment [20] (sheet T-418) and 100% in experiment [21] (sheet T-418).
